# Measured values published in the supplement of paper PMC11451515.
# System: P12-Ichikawa
# Experiment: cell viability relative to DMSO control; higher = less cytotoxic
# Conditions: 48 h
# Outline: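 Leukemia cells (NOMO1 or SEM, 500 cells/well; P12-Ichikawa, 1000 cells/well) were seeded in 5 μl in 1536-well plates after at least four passages of adaptation to each medium. They received library compounds in DMSO by pin dosing, 11 threefold points from 47 μM to 0.79 nM. Luminescence with CellTiter-Glo One was read after 48 h at 37°C. Viability is stated per plate relative to DMSO wells, with cell-free wells as background.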
# [1] = RPMI 5 mM glucose + 10% dialyzed FBS, 0.000781 µM
# [2] = RPMI 5 mM glucose + 10% dialyzed FBS, 0.00234 µM
# [3] = RPMI 5 mM glucose + 10% dialyzed FBS, 0.00702 µM
# [4] = RPMI 5 mM glucose + 10% dialyzed FBS, 0.0211 µM
# [5] = RPMI 5 mM glucose + 10% dialyzed FBS, 0.0632 µM
# [6] = RPMI 5 mM glucose + 10% dialyzed FBS, 0.19 µM
# [7] = RPMI 5 mM glucose + 10% dialyzed FBS, 0.569 µM
# [8] = RPMI 5 mM glucose + 10% dialyzed FBS, 1.71 µM
# [9] = RPMI 5 mM glucose + 10% dialyzed FBS, 5.12 µM
# [10] = RPMI 5 mM glucose + 10% dialyzed FBS, 15.4 µM
# [11] = RPMI 5 mM glucose + 10% dialyzed FBS, 46.1 µM
# [12] = HPLM + 10% dialyzed FBS, 0.000781 µM
# [13] = HPLM + 10% dialyzed FBS, 0.00234 µM
# [14] = HPLM + 10% dialyzed FBS, 0.00702 µM
# [15] = HPLM + 10% dialyzed FBS, 0.0211 µM
# [16] = HPLM + 10% dialyzed FBS, 0.0632 µM
# [17] = HPLM + 10% dialyzed FBS, 0.19 µM
# [18] = HPLM + 10% dialyzed FBS, 0.569 µM
# [19] = HPLM + 10% dialyzed FBS, 1.71 µM
# [20] = HPLM + 10% dialyzed FBS, 5.12 µM
# [21] = HPLM + 10% dialyzed FBS, 15.4 µM
# [22] = HPLM + 10% dialyzed FBS, 46.1 µM
# [23] = RPMI 5 mM glucose + 10% FBS, 0.000781 µM
# [24] = RPMI 5 mM glucose + 10% FBS, 0.00234 µM
# [25] = RPMI 5 mM glucose + 10% FBS, 0.00702 µM
# [26] = RPMI 5 mM glucose + 10% FBS, 0.0211 µM
# [27] = RPMI 5 mM glucose + 10% FBS, 0.0632 µM
# [28] = RPMI 5 mM glucose + 10% FBS, 0.19 µM
# [29] = RPMI 5 mM glucose + 10% FBS, 0.569 µM
# [30] = RPMI 5 mM glucose + 10% FBS, 1.71 µM
# [31] = RPMI 5 mM glucose + 10% FBS, 5.12 µM
# [32] = RPMI 5 mM glucose + 10% FBS, 15.4 µM
# [33] = RPMI 5 mM glucose + 10% FBS, 46.1 µM
Compound,cell viability [1],cell viability [2],cell viability [3],cell viability [4],cell viability [5],cell viability [6],cell viability [7],cell viability [8],cell viability [9],cell viability [10],cell viability [11],cell viability [12],cell viability [13],cell viability [14],cell viability [15],cell viability [16],cell viability [17],cell viability [18],cell viability [19],cell viability [20],cell viability [21],cell viability [22],cell viability [23],cell viability [24],cell viability [25],cell viability [26],cell viability [27],cell viability [28],cell viability [29],cell viability [30],cell viability [31],cell viability [32],cell viability [33]
C[C@H]([C@H](O)CCC(C)(C)O)[C@H]1CC[C@@]2(O)C/3=C/C(=O)[C@@H]4C[C@@H](O)[C@@H](O)C[C@]4(C)[C@H]3CC[C@]12C,109%,125%,121%,124%,131%,122%,119%,121%,120%,107%,113%,–,–,–,–,–,–,–,–,–,–,–,–,–,–,–,–,–,–,–,–,–,–
O=C(NC1CCOCC1)c1ccc(-c2cc(-c3c[nH]nc3-c3ccccn3)ccn2)cc1,114%,109%,103%,105%,103%,102%,96%,105%,88.4%,97.5%,89.8%,104%,103%,110%,104%,111%,108%,109%,96.6%,98.3%,92.4%,104%,104%,109%,110%,109%,109%,94.1%,98.4%,85.7%,99.9%,97.8%,99.9%
CN(C)Cc1ccc(-c2nc3cccc4c3n2CCNC4=O)cc1,90.2%,99.1%,101%,109%,107%,111%,107%,108%,105%,102%,112%,90.5%,100%,105%,103%,109%,102%,112%,109%,108%,114%,110%,92.8%,96.3%,94.7%,108%,108%,105%,106%,107%,109%,109%,106%
CSC1=CC(=CC=C1)NC2=NC3=C(C=N2)/C=C(C(=O)N3C)/C4=C(Cl)C=CC=C4Cl,110%,109%,110%,90.8%,110%,120%,112%,112%,109%,97.5%,97.7%,102%,95%,101%,98.3%,106%,110%,99.2%,105%,97.4%,95.1%,103%,99.6%,111%,115%,109%,115%,106%,112%,112%,109%,95.5%,102%
CN(C)CCOC(c1ccccc1)c1ccccc1,94%,102%,104%,104%,112%,104%,105%,101%,111%,96.8%,83%,104%,107%,105%,103%,111%,111%,112%,103%,109%,111%,82.8%,96.1%,105%,99.4%,112%,110%,105%,105%,105%,100%,110%,85.5%
C[C@H]1CN(C[C@@H](C)O1)CC(=O)NC2=CC=C3SC4=C(CC3=C2)C=CC=C4\C5=C\C(=O)\C=C(/O5)N6CCOCC6,94.7%,119%,86.3%,116%,120%,122%,128%,118%,121%,88.1%,48.9%,91.6%,113%,73.7%,110%,110%,123%,116%,108%,107%,80.3%,51.1%,97.8%,113%,66.9%,125%,110%,120%,114%,124%,109%,95.8%,49.8%
COC1=CC=C2Nc3cc(Cl)ccc3C(N=C3C=C(CN4CCCC4)C(=O)C(CN4CCCC4)=C3)=C2N1,113%,123%,120%,126%,120%,115%,127%,125%,115%,117%,93%,116%,116%,116%,122%,123%,123%,120%,127%,124%,117%,103%,110%,131%,114%,130%,133%,130%,133%,132%,129%,122%,87.6%
COc1cc2c(N3CCN(C(=O)Nc4ccc(OC(C)C)cc4)CC3)ncnc2cc1OCCCN1CCCCC1,79.5%,86.9%,84.7%,83%,81.1%,82.2%,83.6%,79%,84.6%,38.1%,56%,88.6%,92.6%,87.4%,97.5%,91.3%,91.6%,92.3%,90%,86%,58%,43.4%,84.3%,74.1%,80%,92.5%,86.3%,72.8%,78.9%,80.1%,77.4%,42.9%,48.1%
Cc1c[nH]c(/C=C2\C(=O)Nc3ccccc32)c1CCC(=O)O,122%,118%,123%,127%,105%,106%,94.7%,92.4%,71.7%,67.3%,68.7%,109%,107%,111%,108%,101%,111%,97.2%,96.5%,79.2%,76.5%,79.8%,111%,108%,115%,122%,103%,118%,95.2%,93.1%,67.2%,65.8%,65.7%
CC(=O)N1CCN(c2ccc(OCc3nn(C)c(C)c3-c3cccc4c(CCCOc5cc(C)c(Cl)c(C)c5)c(C(=O)O)n(Cc5cccnc5)c34)cc2)CC1,104%,115%,115%,122%,125%,121%,112%,110%,118%,115%,66.7%,104%,113%,112%,115%,114%,111%,113%,107%,115%,113%,39.2%,105%,106%,115%,118%,120%,127%,116%,123%,125%,126%,64.9%
CCCCN(CCCC)CCC(O)c1cc2c(Cl)cc(Cl)cc2c2cc(C(F)(F)F)ccc12 (configuration not stated),108%,110%,114%,117%,120%,125%,130%,138%,131%,141%,105%,120%,122%,118%,120%,130%,131%,130%,131%,131%,124%,121%,115%,126%,119%,118%,135%,147%,141%,150%,132%,105%,88.3%
O=C/1\C=C(/OC(=C1)/C2=C3SC4=C(SC3=CC=C2)C=CC=C4)N5CCOCC5,83.4%,94.4%,97.2%,23.7%,95.7%,84.4%,99.2%,99.4%,96%,95.7%,90.8%,81.4%,100%,98.5%,10.6%,100%,103%,102%,98.1%,95.2%,94.4%,95%,84.7%,92.7%,96.9%,11.2%,103%,100%,106%,104%,93.1%,102%,102%
Cc1cc2c(C(C)C)c(O)c(O)c(C=O)c2c(O)c1-c1c(C)cc2c(C(C)C)c(O)c(O)c(C=O)c2c1O,116%,124%,118%,116%,111%,109%,110%,104%,110%,100%,22%,113%,111%,111%,113%,108%,99.6%,108%,104%,102%,98.1%,17.1%,117%,125%,127%,121%,119%,106%,117%,101%,112%,106%,10.6%
CCC(=O)O[C@@]1([C@@H](C)C[C@H]2[C@@H]3CCC/4=C/C(=O)/C=C\[C@]4(C)[C@@]3(F)[C@@H](O)C[C@]12C)C(=O)CCl,134%,107%,83.8%,79.9%,59.9%,61.3%,56.2%,57%,54.1%,51.3%,38.5%,118%,121%,101%,86.8%,79.2%,73%,76.9%,76.9%,70.2%,68.6%,55%,–,–,–,–,–,–,–,–,–,–,–
Cc1ccc(-n2nc(C(C)(C)C)cc2NC(=O)Nc2ccc(OCCN3CCOCC3)c3ccccc23)cc1,105%,100%,112%,121%,109%,116%,125%,126%,116%,97.5%,104%,106%,112%,113%,115%,111%,117%,119%,126%,114%,109%,102%,106%,107%,103%,97.7%,113%,112%,113%,117%,112%,88.7%,85.2%
